Legend:
[1] = test system: Human Primary Brain Microvascular Endothelial Cell (hPBMEC) monolayers; experiment: Fluorescein permeability of hPBMEC monolayers (tight junction functionality); type: in vitro ADME; conditions: hPBMEC monolayer, with 1 M mannitol treatment 30 min, versus basal
Description: The hPBMECs were cultured as previously described [31]. […] Differentiated hPBMECs with the BBB phenotype (TEER> 1000 Ωxcm^2) were treated or not with 1 M mannitol in serum‐free culture medium for 30 min to temporarily open tight junctions. Then, mannitol solution was removed and replaced by culture medium. Tight junction opening was evaluated with the measurements of fluorescein permeability, a small hydrophilic compound known to cross the BBB via the paracellular route. […] The medium of the abluminal compartment was then collected during a 2‐hour period (n = 3 per condition).
The experimentation was conducted in compliance with the French legislation, and the protocol was permitted by the French Ministry of Higher Education and Research (CODECOH DC-2014-2229). Brain capillaries were isolated using soft digestion of patient brain tissues and then seeded. Brain primary microvascular endothelial cells were shortly amplified and seeded on 12-well-type Transwell® (Corning, membrane area: 1.12 cm^2) with microporous membranes (pore size: 0.4 µm). Cells were cultured in EBM-2 medium (Lonza, Basel, Switzerland) supplemented with 20% serum and growth factors (Sigma-Aldrich, St. Louis, MO, USA). Transendothelial electrical resistance (TEER) was measured as an integrity marker and to assess cellular barrier tightness.

[2] = cited from earlier work
Description: The Arc display several populations of neurons that are pivotal for regulating energy homoeostasis, food intake and cardiovascular functions. Because of this central role at the interface between the brain and the periphery, a few studies have hypothesized that the Arc could share common features with classical CVOs. […] We have therefore reinvestigated this subject using our approach. […] Membrane‐associated SST2 in Arc neurons intern ...

[3] = cited from earlier work; remark: listed apart in the source
SST2 [4] = target: T1, SST2 (Rattus norvegicus, UniProt P30680); experiment: In vivo model 3: juvenile cerebral ischaemia, OCT extravasation detected by SST2 internalization; set-up: two sensory CVOs in which neurons natively express the SST2; from tissue; host or cells: brain of P14 rats (area postrema, OVLT, arcuate nucleus, cerebral cortex), in vivo; conditions: P14 rats, 2.5 mg/kg i.p., 45 mins
T1 sequence (P30680 whole entry, the tested form may be a part): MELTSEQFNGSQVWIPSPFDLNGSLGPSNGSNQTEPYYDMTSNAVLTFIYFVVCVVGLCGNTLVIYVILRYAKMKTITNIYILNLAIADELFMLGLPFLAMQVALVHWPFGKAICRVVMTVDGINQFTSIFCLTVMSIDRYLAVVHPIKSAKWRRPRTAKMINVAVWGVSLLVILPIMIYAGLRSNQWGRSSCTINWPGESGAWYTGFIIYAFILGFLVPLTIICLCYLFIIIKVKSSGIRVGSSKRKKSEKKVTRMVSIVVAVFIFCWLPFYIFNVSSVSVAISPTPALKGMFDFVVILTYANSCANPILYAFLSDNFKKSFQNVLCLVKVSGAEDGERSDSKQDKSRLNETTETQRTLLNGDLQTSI
Description: Ischaemia‐reperfusion. Ischaemia was induced in P14 rats as previously reported. See Supporting Information for further details.
Cerebral ischaemia. Isoflurane-anaesthetized P14 rats were exposed to proximal left middle cerebral artery electrocoagulation (MCAo) combined with a transient (60 min) double occlusion of common carotid arteries (CCAo). Carotid blood-flow restoration was assessed by release of the carotid clips.

[5] = Tolerability after acute OCT i.p. injection; type: in vivo; conditions: rat and mice models, 2.5 mg/kg i.p.
SST2 [6] = target: T1, SST2; conditions: P14 rats, 2.5 mg/kg i.p., 45 mins
Description: Adult mice and post‐natal day 14 (P14) male rats. […] Brains were dissected, post‐fixed in the same fixative overnight at 4°C, cryoprotected, frozen in liquid isopentane at −45°C and sectioned in the coronal plane at a thickness of 30 μm and collected in PBS.
The SST2 receptor was immunolocalized on brain sections (in vivo models 1‐5), whole embryo sections (in vivo model 5) and DAOY cells (in vitro model). Brain sections were selected at the level of the circumventricular organs (in vivo model 1), at the level of the focused ultrasound‐mediated BBB opening (in vivo model 2), at the level of the ischaemia‐reperfusion lesions (in vivo model 3), at the level of the traumatic brain injury (in vivo model 4) and at the level of the caudal embryonic cortex (in vivo model 5). See Supporting Information for further details.

SST2 [7] = target: T2, SST2 (Mus musculus, UniProt P30875); experiment: In vivo model 2: focused ultrasound-mediated BBB disruption, extravasation detected by SST2 internalization or MRI; conditions: after microbubble sonication of the targeted area, i.v.
T2 construct: The endogenous SST2 was immunolocalized using an extensively characterized rabbit monoclonal antibody; from tissue; host or cells: brain of adult C57Bl/6 mice, P7 OF1 mouse pups and C57Bl/6 embryos (E13.5-E18.5), in vivo
T2 sequence (P30875 whole entry): as the sequence (P30680 whole entry, the tested form may be a part) above, with L3M, T4S, F8L, I15V, P16S, G168C, A335T counted along it
Description: BBB disruption induced by magnetic resonance imaging (MRI)‐guided focused ultrasound (FUS) (MRgFUS) was performed as previously reported [28].
Stereological measures of estimated volume in the in vivo model 2 was performed with the Volumest plug‐in [32] in the Fiji distribution of ImageJ [33]. Brightfield images of serial coronal sections separated by 180 μm were collected. The number of serial sections, the thickness of the sections, the sampling interval and pixel‐to‐μm scaling were entered into the Volumest plug‐in. Next, the cortical areas displaying BBB disruption detected by SST2 internalization were manually traced and the volume estimate was calculated in the Volumest plug‐in [32].
Adult C57Bl/6 mice (n=3) were anaesthetized with isoflurane (1-2% at beginning, then 0.8% during MRI acquisition). The catheter was installed in the tail vein and the head was shaved with a depilatory cream. Mice were then installed on the MRgFUS system (Image Guided Therapy) and the transducer was placed on their head. MR contrast agent (MRCA) (Dotarem, Guerbet, France; 0.1 mL) was injected intravenously outside the MRI tunnel, before the baseline MRI acquisition. Mice were then removed from the MRI tunnel in order to inject the ultrasound contrast agent (UCA) (Sonovue, Bracco, Italy; 0.15 mL). […]

## O=C1OC2(c3ccc(O)cc3Oc3cc(O)ccc32)c2ccccc21 [fluorescein]
[1]
  increase of fluorescein permeability: 600 ± 25%

## Cc1cc(-c2ccc(/N=N/c3ccc4c(S(=O)(=O)O)cc(S(=O)(=O)O)c(N)c4c3O)c(C)c2)ccc1/N=N/c1ccc2c(S(=O)(=O)O)cc(S(=O)(=O)O)c(N)c2c1O [Evans blue]
[2]
  dye extravasation in the Arc: extravasated only in the Arc of 24‐hour fasted mice but not in control‐fed mice

## somatostatin
[3]
  half-life in the circulation: 2 to 3 min

## C[C@@H](O)[C@@H]1NC(=O)[C@H](CCCCN)NC(=O)[C@@H](Cc2c[nH]c3ccccc23)NC(=O)[C@H](Cc2ccccc2)NC(=O)[C@@H](NC(=O)[C@H](N)Cc2ccccc2)CSSC[C@@H](C(=O)N[C@H](CO)[C@@H](C)O)NC1=O [OCT, octreotide]
SST2 [4]; 6 h after ischaemia
  SST2 internalization around cortical lesion: few neurons with internalized receptors were visible
SST2 [4]; 12 h after ischaemia
  SST2 internalization around cortical lesion: a larger number of neurons with internalized SST2 are localized in a narrow band
SST2 [4]; 24 h after ischaemia
  SST2 internalization around cortical lesion: induced large areas of SST2 internalization around the core of the cortical lesion
[5]
  physiological or behavioural parameters after acute i.p. injection until perfusion: did not observe any gross changes in physiological or behavioural parameters
SST2 [6]
  SST2 immunoreactivity in AP and OVLT (permeable capillaries): immunoreactivity was confined to intracytoplasmic granules near the nucleus and in proximal dendrites
SST2 [6]; naïve animals
  SST2 in arcuate nucleus neurons: internalized and clustered in TGN‐like structures

## CNC[C@H](O)[C@@H](O)[C@H](O)[C@H](O)CO.O=C([O-])CN1CCN(CC(=O)[O-])CCN(CC(=O)O)CCN(CC(=O)[O-])CC1.[Gd+3] [gadolinium]
SST2 [7]
  Gd extravasation on T1-weighted MRI: Extravasation was evident from the cerebral cortex to deep brain structures
